Test results from PubChem BioAssay AID328 (DTP/NCI, 2004).
Several values for one entry are separate records, joined by “and”; a condition that tells them apart may be missing. Equal values may be shown once. Inconclusive results and toxic doses are left out.

System: BDF1 mice, P388 leukemia ip, median survival T/C
Experiment: NCI In Vivo Anticancer Drug Screen. Data for tumor model P388 Leukemia (intraperitoneal) in B6D2F1 (BDF1) mice
Conditions: endpoint: median survival time, higher = longer survival
Procedure: The antitumor activity of compounds was measured in mice bearing transplantable tumors. Survival or tumor size were measured and the results are expressed as the measurement made in the treated group (T) divided by the measurement made in the vehicle treated control group (C). The tumor model used in this assay is P388 Leukemia (intraperitoneal) in B6D2F1 (BDF1) mice

[1] = dose: 100.0 mg/kg/injection, schedule: Q04DX003 (ip), vehicle: Klucel (hydroxypropylcellulose) (HPC)
[2] = dose: 200.0 mg/kg/injection, schedule: Q04DX003 (ip), vehicle: Klucel (hydroxypropylcellulose) (HPC)
[3] = dose: 400.0 mg/kg/injection, schedule: Q04DX003 (ip), vehicle: Klucel (hydroxypropylcellulose) (HPC)
[4] = dose: 200.0 mg/kg/injection, schedule: Q04DX003 (ip), vehicle: saline with Tween-80
[5] = dose: 400.0 mg/kg/injection, schedule: Q04DX003 (ip), vehicle: saline with Tween-80
[6] = dose: 100.0 mg/kg/injection, schedule: Q01DX009 (ip), vehicle: Klucel (hydroxypropylcellulose) (HPC)
[7] = dose: 12.5 mg/kg/injection, schedule: Q01DX009 (ip), vehicle: saline with Tween-80
[8] = dose: 25.0 mg/kg/injection, schedule: Q01DX009 (ip), vehicle: saline with Tween-80
[9] = dose: 200.0 mg/kg/injection, schedule: Q01DX009 (ip), vehicle: saline with Tween-80
[10] = dose: 400.0 mg/kg/injection, schedule: Q01DX009 (ip), vehicle: saline with Tween-80
[11] = dose: 50.0 mg/kg/injection, schedule: Q01DX009 (ip), vehicle: saline with Tween-80
[12] = dose: 100.0 mg/kg/injection, schedule: Q04DX003 (ip), vehicle: saline with Tween-80

SMILES: COc1ccc(NC(=O)Oc2ccc(-c3ccccc3)cc2Br)cc1
- T/C [1]: 91 % of control
- T/C [2]: 95 % of control
- T/C [3]: 91 % of control

SMILES: O=S(=O)(O)O.[N-]=C(N)/N=C(\[NH-])N.[N-]=C(N)/N=C(\[NH-])N.[N-]=C(N)NC(=[N-])N.[Rh+3]
- T/C (dose: 6.25 mg/kg/injection, schedule: Q01DX009 (ip), vehicle: saline): 104 % of control
- T/C (dose: 12.5 mg/kg/injection, schedule: Q01DX009 (ip), vehicle: saline): 95 % of control
- T/C (dose: 12.5 mg/kg/injection, schedule: Q04DX003 (ip), vehicle: saline): 100 % of control
- T/C (dose: 25.0 mg/kg/injection, schedule: Q01DX009 (ip), vehicle: saline): 119 % of control
- T/C (dose: 25.0 mg/kg/injection, schedule: Q04DX003 (ip), vehicle: saline): 109 % of control
- T/C (dose: 50.0 mg/kg/injection, schedule: Q04DX003 (ip), vehicle: saline): 118 % of control

SMILES: CCC1CN1P(=O)(Oc1ccc2ccccc2c1)N1CC1CC (configuration not stated)
- T/C [4]: 245 % of control
- T/C [5]: 86 % of control

SMILES: BrCc1ccc2c3c(ccc(CBr)c13)CC2
- T/C (dose: 0.92 mg/kg/injection, schedule: Q04DX003 (ip), vehicle: saline): 113 % of control
- T/C (dose: 3.1 mg/kg/injection, schedule: Q04DX003 (ip), vehicle: saline): 120 % of control
- T/C (dose: 17.0 mg/kg/injection, schedule: Q04DX003 (ip), vehicle: Klucel (hydroxypropylcellulose) (HPC)): 154 % of control
- T/C (dose: 25.0 mg/kg/injection, schedule: Q01DX009 (ip), vehicle: Klucel (hydroxypropylcellulose) (HPC)): 118 % of control
- T/C (dose: 75.0 mg/kg/injection, schedule: Q01DX009 (ip), vehicle: Klucel (hydroxypropylcellulose) (HPC)): 118 % of control
- T/C [6]: 95 % of control
- T/C [1]: 150 % of control
- T/C [2]: 154 % of control
- T/C (dose: 300.0 mg/kg/injection, schedule: Q04DX003 (ip), vehicle: Klucel (hydroxypropylcellulose) (HPC)): 87 % of control and 100 % of control
- T/C (dose: 300.0 mg/kg/injection, schedule: Q04DX003 (ip), vehicle: saline): 118 % of control
- T/C [3]: 122 % of control

SMILES: CC1CCC(C)C1NC1=NCCO1 (configuration not stated)
- T/C (dose: 6.25 mg/kg/injection, schedule: Q01DX009 (ip), vehicle: saline with Tween-80): 109 % of control
- T/C [7]: 100 % of control
- T/C [8]: 104 % of control

SMILES: C/C(=N\Nc1ccc([N+](=O)[O-])cc1[N+](=O)[O-])C(F)(F)F
- T/C (dose: 44.0 mg/kg/injection, schedule: Q01DX009 (ip), vehicle: other): 95 % of control
- T/C (dose: 66.0 mg/kg/injection, schedule: Q01DX009 (ip), vehicle: other): 100 % of control
- T/C (dose: 100.0 mg/kg/injection, schedule: Q01DX009 (ip), vehicle: other): 100 % of control
- T/C [1]: 100 % of control
- T/C (dose: 150.0 mg/kg/injection, schedule: Q01DX009 (ip), vehicle: other): 95 % of control
- T/C [9]: 115 % of control
- T/C [2]: 100 % of control
- T/C [10]: 100 % of control
- T/C [3]: 100 % of control

SMILES: COC(=O)C(C)NC1=C(Cl)C(=O)C(NC(C)C(=O)OC)=C(Cl)C1=O (configuration not stated)
- T/C (dose: 50.0 mg/kg/injection, schedule: Q01DX009 (ip), vehicle: saline + Tween-80 + alcohol): 98 % of control
- T/C (dose: 100.0 mg/kg/injection, schedule: Q01DX009 (ip), vehicle: saline + Tween-80 + alcohol): 97 % of control
- T/C (dose: 200.0 mg/kg/injection, schedule: Q01DX009 (ip), vehicle: saline + Tween-80 + alcohol): 101 % of control

SMILES: CC(=O)Nc1ccc(OC(C)=O)cc1C=O
- T/C (dose: 50.0 mg/kg/injection, schedule: Q04DX002 (ip), vehicle: saline with Tween-80): 111 % of control
- T/C (dose: 100.0 mg/kg/injection, schedule: Q04DX002 (ip), vehicle: saline with Tween-80): 98 % of control
- T/C (dose: 200.0 mg/kg/injection, schedule: Q04DX002 (ip), vehicle: saline with Tween-80): 89 % of control

SMILES: COC(=O)CCCCCCCCC[CH2][Hg][Cl]
- T/C (dose: 6.25 mg/kg/injection, schedule: Q04DX003 (ip), vehicle: saline sonified): 100 % of control
- T/C (dose: 12.5 mg/kg/injection, schedule: Q04DX003 (ip), vehicle: saline sonified): 100 % of control
- T/C (dose: 25.0 mg/kg/injection, schedule: Q04DX003 (ip), vehicle: saline sonified): 122 % of control

SMILES: CC(C)C1=CC2=CC(=O)C3C(C)(C)CCCC3(C)C2=C(O)C1=O (configuration not stated)
- T/C (dose: 2.0 mg/kg/injection, schedule: Q01DX010 (ip), vehicle: carboxymethylcellulose (CMC)): 105 % of control
- T/C (dose: 5.0 mg/kg/injection, schedule: Q01DX010 (ip), vehicle: carboxymethylcellulose (CMC)): 105 % of control
- T/C (dose: 5.0 mg/kg/injection, schedule: Q01DX010 (ip), vehicle: other): 115 % of control
- T/C (dose: 10.0 mg/kg/injection, schedule: Q01DX010 (ip), vehicle: carboxymethylcellulose (CMC)): 100 % of control
- T/C (dose: 10.0 mg/kg/injection, schedule: Q01DX010 (ip), vehicle: other): 115 % of control
- T/C (dose: 20.0 mg/kg/injection, schedule: Q01DX010 (ip), vehicle: carboxymethylcellulose (CMC)): 120 % of control

SMILES: C=CCOCC(O)CN(CCCC)CCCC (configuration not stated)
- T/C [7]: 95 % of control
- T/C [8]: 95 % of control
- T/C [11]: 105 % of control

SMILES: CC(=O)Nc1ccc2c([N+](=O)[O-])cccc2c1-c1c(NC(C)=O)ccc2c([N+](=O)[O-])cccc12
- T/C [6]: 110 % of control
- T/C [1]: 109 % of control
- T/C [2]: 100 % of control
- T/C (dose: 400.0 mg/kg/injection, schedule: Q01DX009 (ip), vehicle: Klucel (hydroxypropylcellulose) (HPC)): 95 % of control
- T/C [3]: 100 % of control

SMILES: Cc1ccc(S(=O)(=O)Oc2ccc(-c3ccc(OS(=O)(=O)c4ccc(C)cc4)cc3)cc2)cc1
- T/C [11]: 107 % of control
- T/C (dose: 100.0 mg/kg/injection, schedule: Q01DX009 (ip), vehicle: saline with Tween-80): 111 % of control
- T/C [9]: 90 % of control
- T/C [10]: 94 % of control

SMILES: O=[N+]([O-])c1ccc(N=N/C(Cc2ccccc2)=N\Nc2ccccc2)cc1
- T/C [6]: 100 % of control
- T/C (dose: 200.0 mg/kg/injection, schedule: Q01DX009 (ip), vehicle: Klucel (hydroxypropylcellulose) (HPC)): 100 % of control

SMILES: O=Cc1ccccc1B(O)O
- T/C (dose: 50.0 mg/kg/injection, schedule: Q01DX009 (ip), vehicle: Klucel (hydroxypropylcellulose) (HPC)): 108 % of control and 109 % of control
- T/C (dose: 50.0 mg/kg/injection, schedule: Q04DX003 (ip), vehicle: Klucel (hydroxypropylcellulose) (HPC)): 92 % of control
- T/C [6]: 108 % of control and 118 % of control
- T/C [1]: 100 % of control
- T/C [2]: 107 % of control

SMILES: CCCCOP(=S)(N1CC1)N1CC1
- T/C (dose: 1.78 mg/kg/injection, schedule: Q01DX009 (ip), vehicle: saline with Tween-80): 113 % of control
- T/C (dose: 2.66 mg/kg/injection, schedule: Q01DX009 (ip), vehicle: saline with Tween-80): 150 % of control
- T/C (dose: 2.66 mg/kg/injection, schedule: Q04DX003 (ip), vehicle: saline with Tween-80): 99 % of control
- T/C (dose: 4.0 mg/kg/injection, schedule: Q01DX009 (ip), vehicle: saline with Tween-80): 186 % of control
- T/C (dose: 4.0 mg/kg/injection, schedule: Q04DX003 (ip), vehicle: saline with Tween-80): 95 % of control
- T/C (dose: 6.0 mg/kg/injection, schedule: Q01DX009 (ip), vehicle: saline with Tween-80): 216 % of control
- T/C (dose: 6.6 mg/kg/injection, schedule: Q01DX009 (ip), vehicle: saline with Tween-80): 194 % of control
- T/C (dose: 10.0 mg/kg/injection, schedule: Q01DX009 (ip), vehicle: saline with Tween-80): 211 % of control
- T/C (dose: 11.0 mg/kg/injection, schedule: Q01DX009 (ip), vehicle: saline with Tween-80): 212 % of control
- T/C (dose: 15.0 mg/kg/injection, schedule: Q01DX009 (ip), vehicle: saline with Tween-80): 108 % of control
- T/C [8]: 111 % of control
- T/C (dose: 37.5 mg/kg/injection, schedule: Q01DX009 (ip), vehicle: saline with Tween-80): 95 % of control
- T/C [11]: 96 % of control
- T/C [12]: 263 % of control
- T/C [4]: 104 % of control

SMILES: CCOC(=O)CCC(C)(C#N)c1ccccc1 (configuration not stated)
- T/C [11]: 100 % of control
- T/C [12]: 95 % of control
- T/C [4]: 91 % of control
- T/C [5]: 100 % of control
